Results reported in patent publication US20260207621A1 (Vividion Therapeutics, Inc., priority 2022, published 2026).

Key:
KEAP1 C151 = biological target: T1, KEAP1 C151 (Homo sapiens, UniProt Q14145); assay: Nrf2 TMT measurement: in vitro TE50 for KEAP1 C151 (IA-DTB competition, targeted TMT mass spectrometry) in MDA-MB-468 cell lysate; format: binding; conditions: in vitro target engagement of KEAP1 C151, targeted TMT, read-out: KEAP1_C151 TE50
T1 construct: treating 500 μg of cell lysate generated from MDA-MB-468 breast cancer cells with DMSO or compound; endogenous in cells; host or cells: MDA-MB-468 breast cancer cell lysate
T1 sequence (Q14145 whole entry): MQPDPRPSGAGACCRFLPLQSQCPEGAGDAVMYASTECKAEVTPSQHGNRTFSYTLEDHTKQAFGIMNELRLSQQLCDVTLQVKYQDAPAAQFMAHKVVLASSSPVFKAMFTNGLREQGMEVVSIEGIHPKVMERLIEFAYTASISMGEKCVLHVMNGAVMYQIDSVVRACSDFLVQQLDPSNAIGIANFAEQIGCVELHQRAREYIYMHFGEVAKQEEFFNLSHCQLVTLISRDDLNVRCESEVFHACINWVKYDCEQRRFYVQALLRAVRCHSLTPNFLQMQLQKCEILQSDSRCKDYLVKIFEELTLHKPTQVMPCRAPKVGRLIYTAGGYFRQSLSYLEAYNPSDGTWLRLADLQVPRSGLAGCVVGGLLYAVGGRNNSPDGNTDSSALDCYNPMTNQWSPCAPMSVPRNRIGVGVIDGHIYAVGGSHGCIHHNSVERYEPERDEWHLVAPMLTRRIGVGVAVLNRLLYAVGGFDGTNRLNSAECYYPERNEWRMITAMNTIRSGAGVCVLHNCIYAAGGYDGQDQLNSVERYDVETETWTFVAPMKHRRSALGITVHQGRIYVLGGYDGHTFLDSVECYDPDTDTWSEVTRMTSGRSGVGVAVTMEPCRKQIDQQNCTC
Procedure, shortened: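 MDA-MB-468 lysate (500 μg) treated with compound for 1 h at room temperature, then 200 μM IA-DTB for 1 h. Labeled peptides streptavidin-enriched after trypsin digest, TMT-labeled and quantified by targeted MS3 on the KEAP1 C151 peptide. IC50 from dose-response curve fitting.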

Nrf2 = Nrf2 antagonism assay: ARE luciferase reporter in KYSE-70 cells; format: cell-based; conditions: positive Imax corresponds to Nrf2 antagonism; for Emax: Homo sapiens, KYSE-70, KYSE-70 cells, read-out: KYSE70 Cellular ARE Luciferase Imax (%)
Procedure, shortened: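 KYSE-70 esophageal squamous carcinoma cells carrying Nrf2 W24C (constitutively Nrf2-high) with an ARE-driven luciferase reporter. Loss of luciferase signal reflects Nrf2 antagonism via KEAP1 C151 engagement. IC50 and Imax come from dose-response curves; positive Imax means antagonism.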

Row | Compound | IC50 (KEAP1 C151) | Emax (Nrf2) | KYSE70 Cellular ARE Luciferase Imax (%) (Nrf2; KYSE-70 cells)
1 | C=CC(=O)N1CC(C)(C)OC[C@H]1c1cc(Cl)cc(-c2ccnc(C)n2)c1 (single isomer, unassigned) [Compound 48] | 66 nM | 85% | –
2 | C=CC(=O)N1CCOC[C@H]1c1cc(Cl)cc(-c2nc(N)nc(N)n2)c1 (single isomer, unassigned) [Compound 191] | 12 nM | 93% | –
3 | C=CC(=O)N1CCOC[C@H]1c1cc(Cl)cc(C2CNC(=S)CO2)c1 (single isomer, unassigned) [Compound 240] | 150 nM | – | 61%
4 | C=CC(=O)N1C[C@H](C)OC[C@H]1c1cc(Cl)cc(-c2ccc(F)c(C(N)=O)c2)c1 (single isomer, unassigned) [Compound 182] | 16 nM | 89% | –
5 | C=CC(=O)N1CCOCC1c1cc(Cl)cc(-c2ccccc2)c1 (racemic) [Compound 1, 1-(3-(5-chloro-[1,1′-biphenyl]-3-yl)morpholino)prop-2-en-1-one] | 410 nM | 56% | –
6 | C=CC(=O)N1CCOCC12COc1c(-c3ccnc(N)n3)cc(Cl)cc12 (single isomer, unassigned) [Compound 158, 1-(7-(2-aminopyrimidin-4-yl)-5-chloro-2H-spiro[benzofuran-3,3′-morpholino]-4′-yl)prop-2-en-1-one] | 2720 nM | 71% | –
7 | C=CC(=O)N1CCN(S(C)(=O)=O)C[C@H]1c1cc(Cl)cc(-c2ccnc(N)n2)c1 (single isomer, unassigned) [Compound 124] | 18 nM | 72% | –
8 | C=CC(=O)N1CCOC[C@H]1c1cc(Cl)cc(-c2ccnc(N3CCCC3=O)c2)c1 (single isomer, unassigned) [Compound 12] | 3.9 nM | 68% | –
9 | C=CC(=O)N1CCN(C(C)=O)C[C@H]1c1cc(Cl)cc(-c2ncccn2)c1 (single isomer, unassigned) [Compound 17] | 96.3 nM | 65% | –
10 | C=CC(=O)N1CCS(=O)(=O)CC1c1cc(Cl)cc(-c2cc[nH]c(=O)c2)c1 (single isomer, unassigned) [Compound 39, 4-(3-(4-acryloyl-1,1-dioxidothiomorpholin-3-yl)-5-chlorophenyl)pyridin-2(1H)-one] | 49 nM | 66% | –
11 | C=CC(=O)N1CCS(=O)(=O)CC1c1cc(Cl)cc(C2CCOCC2)c1 (racemic) [Compound 28, 1-(3-(3-chloro-5-(tetrahydro-2H-pyran-4-yl)phenyl)-1,1-dioxidothiomorpholino)prop-2-en-1-one] | 150 nM | 50% | –
12 | C=CC(=O)N1CC2(CC2)OCC1(C)c1cc(Cl)cc(-c2ccnc(N)n2)c1 (single isomer, unassigned) [Compound 161, 1-(6-(3-(2-aminopyrimidin-4-yl)-5-chlorophenyl)-6-methyl-4-oxa-7-azaspiro[2.5]octan-7-yl)prop-2-en-1-one] | 870 nM | 83% | –
13 | C=CC(=O)N1CCOC[C@H]1c1cc(Cl)cc(-c2ccn(C)c(=O)c2)c1 (single isomer, unassigned) [Compound 13] | 50 nM | 72% | –
14 | C=CC(=O)N1CCOC[C@H]1c1cc(Cl)cc(-c2nc(N)nc(NC)n2)c1 (single isomer, unassigned) [Compound 218] | 16 nM | 92% | –
15 | C=CC(=O)N1CC2(CC2)OCC1c1cc(Cl)cc(-c2ccc(F)c(C(N)=O)c2)c1 (single isomer, unassigned) [Compound 76, 3′-(7-acryloyl-4-oxa-7-azaspiro[2.5]octan-6-yl)-5′-chloro-4-fluoro-[1,1′-biphenyl]-3-carboxamide] | 24 nM | 90% | –
16 | C=CC(=O)N1CCOCC1c1cc(Cl)cc(-c2ccc(C(N)=O)cc2)c1 (single isomer, unassigned) [Compound 70, 3′-(4-acryloylmorpholin-3-yl)-5′-chloro-[1,1′-biphenyl]-4-carboxamide] | 54 nM | 81% | –
17 | C=CC(=O)N1CCOCC1c1cc(Cl)cc(-c2cccc(C(N)=O)c2F)c1 (single isomer, unassigned) [Compound 73, 3′-(4-acryloylmorpholin-3-yl)-5′-chloro-2-fluoro-[1,1′-biphenyl]-3-carboxamide] | 56 nM | 74% | –
18 | C=CC(=O)N1CCS(=O)(=O)CC1c1cc(Cl)cc(-c2ccnc(C)n2)c1 (single isomer, unassigned) [Compound 50, 1-(3-(3-chloro-5-(2-methylpyrimidin-4-yl)phenyl)-1,1-dioxidothiomorpholino)prop-2-en-1-one] | 573 nM | 86% | –
19 | C=CC(=O)N1CCOC[C@H]1c1cc(Cl)cc(-n2cc(N)cn2)c1 (single isomer, unassigned) [Compound 211] | 85 nM | 57% | –
20 | C=CC(=O)N1CCOCC12COc1c(-c3ccc(F)c(C(N)=O)c3)cc(Cl)cc12 (single isomer, unassigned) [Compound 143, 5-(4′-acryloyl-5-chloro-2H-spiro[benzofuran-3,3′-morpholin]-7-yl)-2-fluorobenzamide] | 770 nM | 56% | –
21 | C=CC(=O)N1CC(C)(C)OC[C@H]1c1cc(Cl)cc(-c2ccc3nccnc3c2)c1 (single isomer, unassigned) [Compound 47] | 20 nM | 74% | –

Now from value to compound, other results behind:

Row | IC50 (KEAP1 C151) | Compound | Emax (Nrf2) | KYSE70 Cellular ARE Luciferase Imax (%) (Nrf2; KYSE-70 cells)
22 | 174 nM | C=CC(=O)N1CCS(=O)(=O)CC1c1cc(Cl)cc(-c2cc(C)ncn2)c1 (single isomer, unassigned) [Compound 52, 1-(3-(3-chloro-5-(6-methylpyrimidin-4-yl)phenyl)-1,1-dioxidothiomorpholino)prop-2-en-1-one] | 80% | –
23 | 83 nM | C=CC(=O)N1CCC(F)(F)CC1c1cc(Cl)cc(-c2ccnc(N)n2)c1 (single isomer, unassigned) [Compound 284, 1-(2-(3-(2-aminopyrimidin-4-yl)-5-chlorophenyl)-4,4-difluoropiperidin-1-yl)prop-2-en-1-one] | 94% | –
24 | 16 nM | C=CC(=O)N1CCOC[C@H]1c1cc(Cl)cc(-c2cnc(N)c(N)n2)c1 (single isomer, unassigned) [Compound 258] | 93% | –
25 | 140 nM | C=CC(=O)N1CCOC[C@H]1c1cc(Cl)cc(-c2cccc(OC)n2)c1 (single isomer, unassigned) [Compound 100] | 78% | –
26 | 14 nM | C=CC(=O)N1CCOC[C@H]1c1cc(Cl)cc(-c2nccc(OC)n2)c1 (single isomer, unassigned) [Compound 88] | 85% | –
27 | 490 nM | C=CC(=O)N1CCOC[C@H]1c1cc(Cl)cc(-c2nc(Cl)ncc2N)c1 (single isomer, unassigned) [Compound 268] | 53% | –
28 | 380 nM | C=CC(=O)N1CCOC[C@H]1c1cc(Cl)cc(-c2nc(O)n[nH]2)c1 (single isomer, unassigned) [Compound 210] | 55% | –
29 | 11 nM | C=CC(=O)N1[C@H](CC#N)COC[C@H]1c1cc(Cl)cc(-c2cc(N)ncn2)c1 (single isomer, unassigned) [Compound 204] | 86% | –
30 | 36 nM | C=CC(=O)N1CCOC[C@H]1c1cc(Cl)cc(-c2cc3[nH]ccc3cn2)c1 (single isomer, unassigned) [Compound 296] | 96% | –
31 | 42 nM | C=CC(=O)N1CCOCC1c1cc(Cl)cc(-c2ccnc(OC)n2)c1 (single isomer, unassigned) [Compound 49, 1-(3-(3-chloro-5-(2-methoxypyrimidin-4-yl)phenyl)morpholino)prop-2-en-1-one] | 91% | –
32 | 97 nM | C=CC(=O)N1CCOC[C@H]1c1cc(Cl)cc(-c2c[nH]c(N)n2)c1 [Compound 193, (R)-1-(3-(3-(2-amino-1H-imidazol-4-yl)-5-chlorophenyl)morpholino)prop-2-en-1-one] | 91% | –
33 | 20 nM | C=CC(=O)N1[C@H](C(N)=O)COC[C@H]1c1cc(Cl)nc(-c2cc(N)ncn2)c1 (single isomer, unassigned) [Compound 172] | 71% | –
34 | 32 nM | C=CC(=O)N1CCOC[C@H]1c1cc(Cl)cc(-c2cc(C(N)=O)ccn2)c1 (single isomer, unassigned) [Compound 298] | 94% | –
35 | 10 nM | C=CC(=O)N1CCOC[C@H]1c1cc(Cl)cc(-c2nccc(C)n2)c1 (single isomer, unassigned) [Compound 87] | 81% | –
36 | 110 nM | C=CC(=O)N1CCOC[C@H]1c1cc(Cl)cc(-c2cc(N)[nH]n2)c1 (single isomer, unassigned) [Compound 235] | 86% | –
37 | 36 nM | C=CC(=O)N1CCOC[C@H]1c1cc(Cl)cc(-c2cncc(N)n2)c1 (single isomer, unassigned) [Compound 250] | 92% | –
38 | 220 nM | C=CC(=O)N1CCCCC1c1cc(Cl)cc(-c2ncc(N)cn2)c1 (single isomer, unassigned) [Compound 239, 1-(2-(3-(5-aminopyrimidin-2-yl)-5-chlorophenyl)piperidin-1-yl)prop-2-en-1-one] | 83% | –
39 | 17.8 nM | C=CC(=O)N1CCOCC1c1cc(Cl)cc(-c2ccnc(C)n2)c1 (single isomer, unassigned) [Compound 35, 1-(3-(3-chloro-5-(2-methylpyrimidin-4-yl)phenyl)morpholino)prop-2-en-1-one] | 89% | –
40 | 140 nM | C=CC(=O)N1CC(C)(C)OC[C@H]1c1cc(Cl)cc(-c2cc(C)ncn2)c1 (single isomer, unassigned) [Compound 46] | 84% | –
